Data reported in patent US8741944B2, “Anti-infective agents against intracellular pathogens” (priority 2007, dated 2014).
Read-outs that look alike come from different tables or passages of the source.

Key:
[1] = test system: SR (Leukemia); test: NCI DTP tumor cell line screen (SRB), SR
Experimental: (§1) For a typical screening experiment, cells are inoculated into 96 well microtiter plates in 100 μL at plating densities ranging from 5,000 to 40,000 cells/well depending on the doubling time of individual cell lines. After cell inoculation, the microtiter plates are incubated at 37° C., 5% CO2, 95% air and 100% relative humidity for 24 h prior to addition of experimental drugs.
(§2) After 24 h, two plates of each cell line are fixed in situ with TCA, to represent a measurement of the cell population for each cell line at the time of drug addition (Tz). Experimental drugs are solubilized in dimethyl sulfoxide at 400-fold the desired final maximum test concentration and stored frozen prior to use. At the time of drug addition, an aliquot of frozen concentrate is thawed and diluted to twice the desired final maximum test concentration with complete medium containing 50 μg/ml gentamicin. Additional four, 10-fold or ½ log serial dilutions are made to provide a total of five drug concentrations plus control. Aliquots of 100 μl of these different drug dilutions are added to the appropriate microtiter wells already containing 100 μl of medium, resulting in the required final drug concentrations.
(§3) Following drug addition, the plates are incubated for an additional 48 h at 37° C., 5% CO2, 95% air, and 100% relative humidity. For adherent cells, the assay is terminated by the addition of cold TCA. Cells are fixed in situ by the gentle addition of 50 μl of cold 50% (w/v) TCA (final concentration, 10% TCA) and incubated for 60 minutes at 4° C. The supernatant is discarded, and the plates are washed five times with tap water and air dried. Sulforhodamine B (SRB) solution (1001) at 0.4% (w/v) in 1% acetic acid is added to each well, and plates are incubated for 10 minutes at room temperature. After staining, unbound dye is removed by washing five times with 1% acetic acid and the plates are air dried. Bound stain is subsequently solubilized with 10 mM trizma base, and the absorbance is read on an automated plate reader at a wavelength of 515 nm. For suspension cells, the methodology is the same except that the assay is terminated by fixing settled cells at the bottom of the wells by gently adding 50 μl of 80% TCA (final concentration, 16% TCA). Using the seven absorbance measurements [time zero, (Tz), control growth, (C), and test growth in the presence of drug at the five concentration levels (Ti)], the percentage growth is calculated at each of the drug concentrations levels. Percentage growth inhibition is calculated as: [(Ti−Tz)/(C−Tz)]×100 for concentrations for which Ti>/=Tz [(Ti−Tz)/Tz]×100 for concentrations for which Ti<Tz
(§4) Three dose response parameters are calculated for each experimental agent. […] The drug concentration resulting in total growth inhibition (TGI) is calculated from Ti=Tz. […] Values are calculated for each of these three parameters if the level of activity is reached; however, if the effect is not reached or is exceeded, the value for that parameter is expressed as greater or less than the maximum or minimum concentration tested.

[2] = test system: A498 (Renal Cancer); test: NCI DTP tumor cell line screen (SRB), A498
Experimental: as §1, §2, §3, §4

[3] = test system: MCF7 (Breast Cancer); test: NCI DTP tumor cell line screen (SRB), MCF7
Experimental: as §1, §2, §3, §4

[4] = test system: K-562 (Leukemia); test: NCI DTP tumor cell line screen (SRB), K-562
Experimental: as §1, §2, §3, §4

[5] = test system: SN12C (Renal Cancer); test: NCI DTP tumor cell line screen (SRB), SN12C
Experimental: as §1, §2, §3, §4

[6] = test system: MOLT-4 (Leukemia); test: NCI DTP tumor cell line screen (SRB), MOLT-4
Experimental: as §1, §2, §3, §4

[7] = test system: HOP-92 (Non-Small Cell Lung Cancer); test: NCI DTP tumor cell line screen (SRB), HOP-92
Experimental: as §1, §2, §3, §4

[8] = test system: HCT-15 (Colon Cancer); test: NCI DTP tumor cell line screen (SRB), HCT-15
Experimental: as §1, §2, §3, §4

[9] = test system: OVCAR-3 (Ovarian Cancer); test: NCI DTP tumor cell line screen (SRB), OVCAR-3
Experimental: as §1, §2, §3, §4

[10] = test system: OVCAR-8 (Ovarian Cancer); test: NCI DTP tumor cell line screen (SRB), OVCAR-8
Experimental: as §1, §2, §3, §4

[11] = test system: HS 578T (Breast Cancer); test: NCI DTP tumor cell line screen (SRB), HS 578T
Experimental: as §1, §2, §3, §4

[12] = test system: CCRF-CEM (Leukemia); test: NCI DTP tumor cell line screen (SRB), CCRF-CEM
Experimental: as §1, §2, §3, §4

[13] = test system: NCI-H522 (Non-Small Cell Lung Cancer)
Experimental: as §1, §2, §3, §4

[14] = test system: LOX IMVI (Melanoma); test: NCI DTP tumor cell line screen (SRB), LOX IMVI
Experimental: as §1, §2, §3, §4

[15] = test system: MALME-3M (Melanoma); test: NCI DTP tumor cell line screen (SRB), MALME-3M
Experimental: as §1, §2, §3, §4

[16] = test system: SK-MEL-28 (Melanoma); test: NCI DTP tumor cell line screen (SRB), SK-MEL-28
Experimental: as §1, §2, §3, §4

4-[5-(2-Phenanthrenyl)-3-(trifluoromethyl)-1H-pyrazol-1-yl]-phenyl -guanidine [Compound 71]
GI50 [1]: 38.6 nM | TGI [1]: 3.79E−07 | Percent Growth ([1]; Log10 Concentration −4.0): −21% | Percent Growth ([1]; Log10 Concentration −5.0): −36% | Percent Growth ([1]; Log10 Concentration −6.0): −30% | Percent Growth ([1]; Log10 Concentration −7.0): 42% | Percent Growth ([1]; Log10 Concentration −8.0): 62% | GI50 [2]: 16500 nM | TGI [2]: 4.35E−05 | Percent Growth ([2]; Log10 Concentration −4.0): −43% | Percent Growth ([2]; Log10 Concentration −5.0): 76% | Percent Growth ([2]; Log10 Concentration −6.0): 73% | Percent Growth ([2]; Log10 Concentration −7.0): 91% | Percent Growth ([2]; Log10 Concentration −8.0): 116% | GI50 [3]: 1820 nM | TGI [3]: 3.44E−06 | Percent Growth ([3]; Log10 Concentration −4.0): −49% | Percent Growth ([3]; Log10 Concentration −6.0): 97% | Percent Growth ([3]; Log10 Concentration −7.0): 82% | GI50 [4]: 326 nM | TGI [4]: 1.52E−06 | Percent Growth ([4]; Log10 Concentration −4.0): −60% | Percent Growth ([4]; Log10 Concentration −5.0): −58% | Percent Growth ([4]; Log10 Concentration −6.0): 13% | Percent Growth ([4]; Log10 Concentration −8.0): 94% | GI50 [5]: 1570 nM | TGI [5]: 2.91E−06 | Percent Growth ([5]; Log10 Concentration −4.0): −62% | Percent Growth ([5]; Log10 Concentration −5.0): −100% | Percent Growth ([5]; Log10 Concentration −7.0): 78% | GI50 [6]: 233 nM | TGI [6]: 1.98E−06 | Percent Growth ([6]; Log10 Concentration −6.0): 23% | Percent Growth ([6]; Log10 Concentration −7.0): 66% | GI50 [7]: 1010 nM | TGI [7]: 2.26E−06 | Percent Growth ([7]; Log10 Concentration −4.0): −28% | Percent Growth ([7]; Log10 Concentration −5.0): −92% | Percent Growth ([7]; Log10 Concentration −6.0): 50% | Percent Growth ([7]; Log10 Concentration −7.0): 82% | GI50 ([8]; HCT-15): 1540 nM | TGI ([8]; HCT-15): 2.87E−06 | Percent Growth ([8]; HCT-15, Log10 Concentration −4.0): −71% | Percent Growth ([8]; HCT-15, Log10 Concentration −5.0): −100% | Percent Growth ([8]; HCT-15, Log10 Concentration −8.0): 64% | GI50 [9]: 1400 nM | TGI [9]: 2.70E−06 | Percent Growth ([9]; Log10 Concentration −4.0): −72% | Percent Growth ([9]; Log10 Concentration −5.0): −100% | Percent Growth ([9]; Log10 Concentration −6.0): 76% | Percent Growth ([9]; Log10 Concentration −8.0): 91% | GI50 ([10]; OVCAR 8): 1690 nM | TGI ([10]; OVCAR 8): 3.05E−06 | Percent Growth ([10]; OVCAR 8, Log10 Concentration −4.0): −69% | Percent Growth ([10]; OVCAR 8, Log10 Concentration −5.0): −100% | Percent Growth ([10]; OVCAR 8, Log10 Concentration −6.0): 94% | Percent Growth ([10]; OVCAR 8, Log10 Concentration −8.0): 92% | GI50 [11]: 1860 nM | TGI [11]: 3.78E−06 | Percent Growth ([11]; Log10 Concentration −4.0): −38% | Percent Growth ([11]; Log10 Concentration −5.0): −69% | Percent Growth ([11]; Log10 Concentration −6.0): 94% | Percent Growth ([11]; Log10 Concentration −7.0): 100% | GI50 [12]: 1230 nM | TGI [12]: 2.48E−06 | Percent Growth ([12]; Log10 Concentration −4.0): −53% | Percent Growth ([12]; Log10 Concentration −5.0): −99% | Percent Growth ([12]; Log10 Concentration −6.0): 65% | Percent Growth ([12]; Log10 Concentration −7.0): 79% | Percent Growth ([12]; Log10 Concentration −8.0): 78% | GI50 [13]: 1450 nM | TGI [13]: 2.82E−06 | Percent Growth ([13]; Log10 Concentration −4.0): −43% | Percent Growth ([13]; Log10 Concentration −5.0): −95% | Percent Growth ([13]; Log10 Concentration −6.0): 78% | Percent Growth ([13]; Log10 Concentration −8.0): 82% | GI50 [14]: 1340 nM | TGI [14]: 2.65E−06 | Percent Growth ([14]; Log10 Concentration −4.0): −53% | Percent Growth ([14]; Log10 Concentration −5.0): −98% | Percent Growth ([14]; Log10 Concentration −6.0): 72% | Percent Growth ([14]; Log10 Concentration −8.0): 73% | GI50 [15]: 1010 nM | TGI [15]: 2.33E−06 | Percent Growth ([15]; Log10 Concentration −4.0): −50% | Percent Growth ([15]; Log10 Concentration −6.0): 50% | Percent Growth ([15]; Log10 Concentration −8.0): 52% | GI50 [16]: 1560 nM | TGI [16]: 2.89E−06 | Percent Growth ([16]; Log10 Concentration −4.0): −53% | Percent Growth ([16]; Log10 Concentration −5.0): −100% | Percent Growth ([16]; Log10 Concentration −7.0): 90%
